Results: patent US10328077B2 (CELGENE CORPORATION, priority 2016, dated 2019)
Where a name gives a salt, the structure may show the parent alone.

Biological target: human LSD-1 (Homo sapiens (Human), UniProt O60341)
Experiment: In vitro enzyme inhibition assay LSD-1 (TR-FRET)
Format: biochemical
Conditions: not given
From the text: This assay determines the ability of a test compound to inhibit LSD-1 demethylase activity.
The enzymatic assay of LSD-1 activity is based on Time Resolved-Fluorescence Resonance Energy Transfer (TR-FRET) detection.

Row | SMILES | IC50 [nM]
1 | COc1ccc(-c2c(-c3ccc(C#N)c(F)c3)nc(N(C)C3CCNCC3)n(C)c2=O)cc1 [Example 55, 2-fluoro-4-[5-(4-methoxy-phenyl)-1-methyl-2-(methyl-piperidin-4-yl-amino)-6-oxo-1,6-dihydro-pyrimidin-4-yl]-benzonitrile] | < 100

Same assay, conditions: TR-FRET, H3K4me1-biotin labeled peptide

Row | IC50 [nM] | SMILES
2 | < 100 | COc1ccc(-c2c(-c3ccc(C#N)c(F)c3)nc(NC3CCNCC3)n(C)c2=O)cc1 [Example 53, 2-fluoro-4-[5-(4-methoxy-phenyl)-1-methyl-6-oxo-2-(piperidin-4-ylamino)-1,6-dihydro-pyrimidin-4-yl]-benzonitrile]
3 | < 100 | Cn1c(N2CCC(N)CC2)nc(-c2ccc(C#N)c(F)c2)cc1=O [Example 108, 4-[2-(4-aminopiperidin-1-yl)-1-methyl-6-oxopyrimidin-4-yl]-2-fluorobenzonitrile]
4 | < 100 | Cn1c(N2CCC(N)CC2)nc(-c2ccc(C#N)c(F)c2)c(-c2ccc(F)cc2)c1=O [Example 101, 4-[2-(4-aminopiperidin-1-yl)-5-(4-fluorophenyl)-1-methyl-6-oxopyrimidin-4-yl]-2-fluorobenzonitrile]
5 | > 10000 | COc1ccc(-c2c(-c3ccccc3C#N)nc(N3CCC(N)CC3)n(C)c2=O)cc1F [Example 119, 2-[2-(4-aminopiperidin-1-yl)-5-(3-fluoro-4-methoxyphenyl)-1-methyl-6-oxopyrimidin-4-yl]benzonitrile]
6 | < 100 | COc1ccc(-c2c(-c3ccc(C#N)c(F)c3)nc(N3CCC[C@H](N)C3)n(C)c2=O)cc1F [Example 28, 4-[2-((3S)-3-amino-piperidin-1-yl)-5-(3-fluoro-4-methoxy-phenyl)-1-methyl-6-oxo-1,6-dihydro-pyrimidin-4-yl]-2-fluoro-benzonitrile]
7 | < 100 | COc1ccc(-c2c(-c3ccc(C#N)c(F)c3)nc(N3CCNCC3)n(C)c2=O)cc1F [Example 47, 2-fluoro-4-[5-(3-fluoro-4-methoxy-phenyl)-1-methyl-6-oxo-2-piperazin-1-yl-1,6-dihydro-pyrimidin-4-yl]-benzonitrile]
8 | < 100 | COc1ccc(-c2c(-c3ccc(C#N)cc3)nc(NC[C@H]3CCNC3)n(C)c2=O)cc1F [Example 44, 4-{5-(3-fluoro-4-methoxy-phenyl)-1-methyl-6-oxo-2-[(3S)-(pyrrolidin-3-ylmethyl)-amino]-1,6-dihydro-pyrimidin-4-yl}-benzonitrile]
9 | < 100 | CNC(=O)c1ccc(-c2c(-c3ccc(C#N)cc3)nc(N3CCC(N)CC3)n(C)c2=O)cc1F [Example 40, {4-[2-(4-aminopiperidyl)-6-(4-cyanophenyl)-3-methyl-4-oxo-(3-hydropyrimidin-5-yl)]-2-fluorophenyl}-N-methylcarboxamide]
10 | < 100 | CN(C)c1ncc(-c2c(-c3ccc(C#N)c(F)c3)nc(N3CCC(N(C)C)CC3)n(C)c2=O)cn1 [Example 81, 4-[2′-dimethylamino-2-(4-dimethylamino-piperidin-1-yl)-1-methyl-6-oxo-1,6-dihydro-[5,5′]bipyrimidinyl-4-yl]-2-fluoro-benzonitrile]
11 | < 100 | CNC1CCN(c2nc(-c3ccc(C#N)c(F)c3)c(-c3ccc(C)nc3)c(=O)n2C)CC1 [Example 21, 2-fluoro-4-[1-methyl-2-(4-methylamino-piperidin-1-yl)-5-(6-methyl-pyridin-3-yl)-6-oxo-1,6-dihydro-pyrimidin-4-yl]-benzonitrile]
12 | 100 to 1000 | Cn1c(N2CCC(N)CC2)nc(-c2ccc(C#N)c(F)c2)c(C#N)c1=O [Example 121, 2-(4-amino-piperidin-1-yl)-4-(4-cyano-3-fluoro-phenyl)-1-methyl-6-oxo-1,6-dihydro-pyrimidine-5-carbonitrile]
13 | < 100 | COc1ccc(-c2c(-c3ccc(C#N)c(F)c3)nc(N3CC(CN)C3)n(C)c2=O)cc1 [Example 69, 4-[2-(3-aminomethyl-azetidin-1-yl)-5-(4-methoxy-phenyl)-1-methyl-6-oxo-1,6-dihydro-pyrimidin-4-yl]-2-fluoro-benzonitrile]
14 | < 100 | COc1ccc(-c2c(-c3ccc(C#N)cc3)nc(N3CCCNCC3)n(C)c2=O)cn1 [Example 62]
15 | > 10000 | COc1ccc(-c2c(-c3cccc(C#N)c3)nc(N3CCC(N)CC3)n(C)c2=O)cc1F [Example 118, 3-[2-(4-aminopiperidin-1-yl)-5-(3-fluoro-4-methoxyphenyl)-1-methyl-6-oxopyrimidin-4-yl]benzonitrile]
16 | < 100 | C#Cc1c(-c2ccc(C#N)c(F)c2)nc(N2CCC(N)CC2)n(C)c1=O [Example 110]
17 | > 10000 | Cn1c(N2CCC(N)CC2)nc(-c2ccccc2)c(-c2ccc3c(ccn3C)c2)c1=O [Example 114, 2-(4-amino-piperidin-1-yl)-3-methyl-5-(1-methyl-1H-indol-5-yl)-6-phenyl-3H-pyrimidin-4-one]
18 | < 100 | Cn1c(N2CCC(N)CC2)nc(-c2ccc(C#N)c(F)c2)c(C#N)c1=O [Example 19, 2-(4-amino-piperidin-1-yl)-4-(4-cyano-3-fluoro-phenyl)-1-methyl-6-oxo-1,6-dihydro-pyrimidine-5-carbonitrile]
19 | < 100 | COc1ccc(-c2c(-c3ccc(C#N)cc3)nc(NC[C@@H]3CCNC3)n(C)c2=O)cc1F [Example 45, 4-{5-(3-fluoro-4-methoxy-phenyl)-1-methyl-6-oxo-2-[(3R)-(pyrrolidin-3-ylmethyl)-amino]-1,6-dihydro-pyrimidin-4-yl}-benzonitrile]
20 | < 100 | COc1ccc(-c2c(-c3ccc(C#N)c(F)c3)nc(N3CCC(N)CC3)n(CC(=O)O)c2=O)cc1 [Example 15, [2-(4-amino-piperidin-1-yl)-4-(4-cyano-3-fluoro-phenyl)-5-(4-methoxy-phenyl)-6-oxo-6H-pyrimidin-1-yl]-acetic acid]
21 | < 100 | Cc1ccc(-c2c(-c3ccc(C#N)c(F)c3)nc(N3CCC(N(C)C)CC3)n(C)c2=O)cn1 [Example 82, 4-[2-(4-dimethylamino-piperidin-1-yl)-1-methyl-5-(6-methyl-pyridin-3-yl)-6-oxo-1,6-dihydro-pyrimidin-4-yl]-2-fluoro-benzonitrile]

Row | SMILES | IC50 [nM]
22 | COc1ncc(-c2c(-c3ccc(C#N)c(F)c3)nc(N3CCC(N)CC3)n(C)c2=O)cc1F [Example 26, 4-[2-(4-aminopiperidyl)-5-(5-fluoro-6-methoxy(3-5,6-dihydropyridyl))-1-methyl-6-oxohydropyrimidin-4-yl]-2-fluorobenzenecarbonitrile] | < 100
23 | COc1ccc(-c2c(-c3ccc(C#N)c(F)c3)nc(N3CCCNCC3)n(C)c2=O)cn1 [Example 61, 4-[2-[1,4]diazepan-1-yl-5-(6-methoxy-pyridin-3-yl)-1-methyl-6-oxo-1,6-dihydro-pyrimidin-4-yl]-2-fluoro benzonitrile] | < 100

Tested on: CD11b expression in THP-1 (AML) cells
Experiment: LSD-1 CD11b cellular assay (flow cytometry)
Conditions: Homo sapiens, THP-1, 96 h, read-out: THP-1 IC50

Row | SMILES | IC50 [nM]
24 | Cn1c(N2CCC(N)CC2)nc(-c2ccc(C#N)c(F)c2)c(-c2ccc3c(ccn3C)c2)c1=O [Example 74, 4-[2-(4-amino-piperidin-1-yl)-1-methyl-5-(1-methyl-1H-indol-5-yl)-6-oxo-1,6-dihydro-pyrimidin-4-yl]-2-fluoro-benzonitrile] | < 100
25 | Cc1ccc(-c2c(-c3ccc(C#N)cc3)nc(N3CCC(N)CC3)n(C)c2=O)cc1 [Example 1, 4-(2-(4-aminopiperidin-1-yl)-1-methyl-6-oxo-5-p-tolyl-1,6-dihydropyrimidin-4-yl)benzonitrile, HCl salt] | < 100
